Measurements: PubChem BioAssay (NCI)
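Results reflect a 48-hour exposure of cells in 96-well plates to compound at five concentrations. TGI denotes the concentration required for complete inhibition of growth.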

Legend:
Assay in all cases: NCI anticancer screen, dose series, 48 h
786-0 renal = test system: 786-0 renal
A498 renal = test system: A498 renal
A549 NSCLC = test system: A549 NSCLC
ACHN renal = test system: ACHN renal
CAKI-1 renal = test system: CAKI-1 renal
CCRF-CEM leukemia = test system: CCRF-CEM leukemia
COLO 205 colon = test system: COLO 205 colon
DU-145 prostate = test system: DU-145 prostate
EKVX NSCLC = test system: EKVX NSCLC
HCC-2998 colon = test system: HCC-2998 colon
HCT-116 colon = test system: HCT-116 colon
HCT-15 colon = test system: HCT-15 colon
HL-60(TB) leukemia = test system: HL-60(TB) leukemia
HOP-62 NSCLC = test system: HOP-62 NSCLC
HS 578T breast = test system: HS 578T breast
HT29 colon = test system: HT29 colon
IGROV1 ovarian = test system: IGROV1 ovarian
K-562 leukemia = test system: K-562 leukemia
KM12 colon = test system: KM12 colon
LOX IMVI melanoma = test system: LOX IMVI melanoma
M14 melanoma = test system: M14 melanoma
MALME-3M melanoma = test system: MALME-3M melanoma
MCF7 breast = test system: MCF7 breast
MDA-MB-231 breast = test system: MDA-MB-231 breast
MDA-MB-435 = test system: MDA-MB-435
MDA-N = test system: MDA-N
MOLT-4 leukemia = test system: MOLT-4 leukemia
NCI-H226 lung = test system: NCI-H226 lung
NCI-H23 lung = test system: NCI-H23 lung
NCI-H460 lung = test system: NCI-H460 lung
NCI-H522 lung = test system: NCI-H522 lung
NCI/ADR-RES ovarian = test system: NCI/ADR-RES ovarian
OVCAR-3 ovarian = test system: OVCAR-3 ovarian
OVCAR-4 ovarian = test system: OVCAR-4 ovarian
OVCAR-5 ovarian = test system: OVCAR-5 ovarian
OVCAR-8 ovarian = test system: OVCAR-8 ovarian
PC-3 prostate = test system: PC-3 prostate
RPMI-8226 leukemia = test system: RPMI-8226 leukemia
RXF 393 renal = test system: RXF 393 renal
SF-268 CNS = test system: SF-268 CNS
SF-295 CNS = test system: SF-295 CNS
SF-539 CNS = test system: SF-539 CNS
SK-MEL-2 melanoma = test system: SK-MEL-2 melanoma
SK-MEL-28 melanoma = test system: SK-MEL-28 melanoma
SK-MEL-5 melanoma = test system: SK-MEL-5 melanoma
SK-OV-3 ovarian = test system: SK-OV-3 ovarian
SN12C renal = test system: SN12C renal
SNB-19 CNS = test system: SNB-19 CNS
SNB-75 CNS = test system: SNB-75 CNS
SW-620 colon = test system: SW-620 colon
T-47D breast = test system: T-47D breast
TK-10 renal = test system: TK-10 renal
U251 CNS = test system: U251 CNS
UACC-257 melanoma = test system: UACC-257 melanoma
UACC-62 melanoma = test system: UACC-62 melanoma
UO-31 renal = test system: UO-31 renal
BT-549 breast = test system: BT-549 breast

## Cc1[nH]n(-c2nc3c(c(=O)[nH]2)CCC3)c(=O)c1CCO
786-0 renal
  TGI: > 100 µM
A498 renal
  TGI: > 100 µM
A549 NSCLC
  TGI: > 100 µM
ACHN renal
  TGI: > 100 µM
CAKI-1 renal
  TGI: > 100 µM
CCRF-CEM leukemia
  TGI: > 100 µM
COLO 205 colon
  TGI: > 100 µM
DU-145 prostate
  TGI: > 100 µM
EKVX NSCLC
  TGI: > 100 µM
HCC-2998 colon
  TGI: > 100 µM
HCT-116 colon
  TGI: > 100 µM
HCT-15 colon
  TGI: > 100 µM
HL-60(TB) leukemia
  TGI: > 100 µM
HOP-62 NSCLC
  TGI: > 100 µM
HS 578T breast
  TGI: > 100 µM
HT29 colon
  TGI: > 100 µM
IGROV1 ovarian
  TGI: > 100 µM
K-562 leukemia
  TGI: > 100 µM
KM12 colon
  TGI: > 100 µM
LOX IMVI melanoma
  TGI: > 100 µM
M14 melanoma
  TGI: > 100 µM
MALME-3M melanoma
  TGI: > 100 µM
MCF7 breast
  TGI: > 100 µM
MDA-MB-231 breast
  TGI: > 100 µM
MDA-MB-435
  TGI: > 100 µM
MDA-N
  TGI: > 100 µM
MOLT-4 leukemia
  TGI: > 100 µM
NCI-H226 lung
  TGI: > 100 µM
NCI-H23 lung
  TGI: > 100 µM
NCI-H460 lung
  TGI: > 100 µM
NCI-H522 lung
  TGI: > 100 µM
NCI/ADR-RES ovarian
  TGI: > 100 µM
OVCAR-3 ovarian
  TGI: > 100 µM
OVCAR-4 ovarian
  TGI: > 100 µM
OVCAR-5 ovarian
  TGI: > 100 µM
OVCAR-8 ovarian
  TGI: > 100 µM
PC-3 prostate
  TGI: > 100 µM
RPMI-8226 leukemia
  TGI: > 100 µM
RXF 393 renal
  TGI: > 100 µM
SF-268 CNS
  TGI: > 100 µM
SF-295 CNS
  TGI: > 100 µM
SF-539 CNS
  TGI: > 100 µM
SK-MEL-2 melanoma
  TGI: > 100 µM
SK-MEL-28 melanoma
  TGI: > 100 µM
SK-MEL-5 melanoma
  TGI: > 100 µM
SK-OV-3 ovarian
  TGI: > 100 µM
SN12C renal
  TGI: > 100 µM
SNB-19 CNS
  TGI: > 100 µM
SNB-75 CNS
  TGI: 46.5 µM
SW-620 colon
  TGI: > 100 µM
T-47D breast
  TGI: > 100 µM
TK-10 renal
  TGI: > 100 µM
U251 CNS
  TGI: > 100 µM
UACC-257 melanoma
  TGI: > 100 µM
UACC-62 melanoma
  TGI: > 100 µM
UO-31 renal
  TGI: > 100 µM

## CCOC(=O)c1nnsc1NC(=O)Nc1ccc(Cl)cc1
786-0 renal
  TGI: 42.4 µM
A549 NSCLC
  TGI: > 100 µM
ACHN renal
  TGI: > 100 µM
BT-549 breast
  TGI: > 100 µM
CCRF-CEM leukemia
  TGI: > 100 µM
COLO 205 colon
  TGI: > 100 µM
DU-145 prostate
  TGI: > 100 µM
EKVX NSCLC
  TGI: > 100 µM
HCC-2998 colon
  TGI: > 100 µM
HCT-116 colon
  TGI: 70.5 µM
HCT-15 colon
  TGI: > 100 µM
HOP-62 NSCLC
  TGI: > 100 µM
HS 578T breast
  TGI: > 100 µM
HT29 colon
  TGI: > 100 µM
IGROV1 ovarian
  TGI: > 100 µM
K-562 leukemia
  TGI: > 100 µM
KM12 colon
  TGI: > 100 µM
M14 melanoma
  TGI: > 100 µM
MALME-3M melanoma
  TGI: > 100 µM
MDA-MB-231 breast
  TGI: 52.7 µM
MDA-MB-435
  TGI: > 100 µM
MDA-N
  TGI: > 100 µM
MOLT-4 leukemia
  TGI: > 100 µM
NCI-H226 lung
  TGI: > 100 µM
NCI-H23 lung
  TGI: > 100 µM
NCI-H460 lung
  TGI: 32.1 µM
NCI-H522 lung
  TGI: 50.1 µM
NCI/ADR-RES ovarian
  TGI: 72.5 µM
OVCAR-3 ovarian
  TGI: > 100 µM
OVCAR-4 ovarian
  TGI: 51.2 µM
OVCAR-5 ovarian
  TGI: > 100 µM
OVCAR-8 ovarian
  TGI: 41.2 µM
PC-3 prostate
  TGI: > 100 µM
RPMI-8226 leukemia
  TGI: > 100 µM
RXF 393 renal
  TGI: > 100 µM
SF-268 CNS
  TGI: > 100 µM
SK-MEL-2 melanoma
  TGI: > 100 µM
SK-MEL-28 melanoma
  TGI: > 100 µM
SK-MEL-5 melanoma
  TGI: > 100 µM
SN12C renal
  TGI: > 100 µM
SNB-19 CNS
  TGI: > 100 µM
SNB-75 CNS
  TGI: 88 µM
SW-620 colon
  TGI: > 100 µM
T-47D breast
  TGI: > 100 µM
TK-10 renal
  TGI: > 100 µM
U251 CNS
  TGI: > 100 µM
UACC-257 melanoma
  TGI: > 100 µM
UACC-62 melanoma
  TGI: > 100 µM
UO-31 renal
  TGI: > 100 µM
